From ChEMBL document CHEMBL3792365, “Dioxol and dihydrodioxin analogs of 2- and 3-phenylacetonitriles as potent anti-cancer agents with nanomolar activity against a variety of human cancer cells” (2016)

What was measured:
Format in all cases: functional
SK-MEL-2 = experiment: Growth inhibition of human SK-MEL-2 cells at 10 uM after 48 hrs by sulforhodamine B assay; conditions: SK-MEL-2, 48 h, values are per cent of control
[1] = Growth inhibition of human HCT116 cells at 10 uM after 48 hrs by sulforhodamine B assay; conditions: HCT-116, 48 h, values are per cent of control
[2] = Growth inhibition of human HOP62 cells at 10 uM after 48 hrs by sulforhodamine B assay; conditions: HOP-62, 48 h, values are per cent of control
[3] = Growth inhibition of human IGROV1 cells at 10 uM after 48 hrs by sulforhodamine B assay; conditions: IGROV-1, 48 h, values are per cent of control
[4] = Growth inhibition of human OVCAR4 cells at 10 uM after 48 hrs by sulforhodamine B assay; conditions: OVCAR-4, 48 h, values are per cent of control
[5] = Growth inhibition of human SNB75 cells at 10 uM after 48 hrs by sulforhodamine B assay; conditions: SNB-75, 48 h, values are per cent of control
[6] = Growth inhibition of human SNB19 cells at 10 uM after 48 hrs by sulforhodamine B assay; conditions: SNB-19, 48 h, values are per cent of control
[7] = Growth inhibition of human SF539 cells at 10 uM after 48 hrs by sulforhodamine B assay; conditions: SF-539, 48 h, values are per cent of control
[8] = Growth inhibition of human SF295 cells at 10 uM after 48 hrs by sulforhodamine B assay; conditions: SF-295, 48 h, values are per cent of control
786-0 = experiment: Growth inhibition of human 786-0 cells at 10 uM after 48 hrs by sulforhodamine B assay; conditions: 786-0, 48 h, values are per cent of control
SR = experiment: Growth inhibition of human SR cells at 10 uM after 48 hrs by sulforhodamine B assay; conditions: values are per cent of control
[9] = Growth inhibition of human Caki1 cells at 10 uM after 48 hrs by sulforhodamine B assay; conditions: CAKI-1, 48 h, values are per cent of control
[10] = Growth inhibition of human SW620 cells at 10 uM after 48 hrs by sulforhodamine B assay; conditions: SW-620, 48 h, values are per cent of control
ACHN = experiment: Growth inhibition of human ACHN cells at 10 uM after 48 hrs by sulforhodamine B assay; conditions: values are per cent of control
[11] = Growth inhibition of human RXF393 cells at 10 uM after 48 hrs by sulforhodamine B assay; conditions: RXF 393, 48 h, values are per cent of control
[12] = Growth inhibition of human OVCAR5 cells at 10 uM after 48 hrs by sulforhodamine B assay; conditions: OVCAR-5, 48 h, values are per cent of control
M14 = experiment: Growth inhibition of human M14 cells at 10 uM after 48 hrs by sulforhodamine B assay; conditions: M14, 48 h, values are per cent of control
[13] = Growth inhibition of human TK10 cells at 10 uM after 48 hrs by sulforhodamine B assay; conditions: TK-10, 48 h, values are per cent of control
[14] = Growth inhibition of human UACC62 cells at 10 uM after 48 hrs by sulforhodamine B assay; conditions: UACC-62, 48 h, values are per cent of control
U-251 = experiment: Growth inhibition of human U251 cells at 10 uM after 48 hrs by sulforhodamine B assay; conditions: U-251, 48 h, values are per cent of control
[15] = Growth inhibition of human DU145 cells at 10 uM after 48 hrs by sulforhodamine B assay; conditions: DU-145, 48 h, values are per cent of control
NCI-H23 = experiment: Growth inhibition of human NCI-H23 cells at 10 uM after 48 hrs by sulforhodamine B assay; conditions: NCI-H23, 48 h, values are per cent of control
T47D = experiment: Growth inhibition of human T47D cells at 10 uM after 48 hrs by sulforhodamine B assay; conditions: values are per cent of control
MDA-MB-468 = experiment: Growth inhibition of human MDA-MB-468 cells at 10 uM after 48 hrs by sulforhodamine B assay; conditions: MDA-MB-468, 48 h, values are per cent of control
NCI-H322M = experiment: Growth inhibition of human NCI-H322M cells at 10 uM after 48 hrs by sulforhodamine B assay; conditions: values are per cent of control
MDA-MB-435 = experiment: Growth inhibition of human MDA-MB-435 cells at 10 uM after 48 hrs by sulforhodamine B assay; conditions: MDA-MB-435, 48 h, values are per cent of control
[16] = Growth inhibition of human SKOV3 cells at 10 uM after 48 hrs by sulforhodamine B assay; conditions: SK-OV-3, 48 h, values are per cent of control
[17] = Growth inhibition of human SF268 cells at 10 uM after 48 hrs by sulforhodamine B assay; conditions: SF-268, 48 h, values are per cent of control
K562 = experiment: Growth inhibition of human K562 cells at 10 uM after 48 hrs by sulforhodamine B assay; conditions: K562, 48 h, values are per cent of control
SN12C = experiment: Growth inhibition of human SN12C cells at 10 uM after 48 hrs by sulforhodamine B assay; conditions: values are per cent of control
[18] = Growth inhibition of human NCI-ADR-RES cells at 10 uM after 48 hrs by sulforhodamine B assay; conditions: values are per cent of control
[19] = Growth inhibition of human Hs 578T cells at 10 uM after 48 hrs by sulforhodamine B assay; conditions: values are per cent of control
NCI-H522 = experiment: Growth inhibition of human NCI-H522 cells at 10 uM after 48 hrs by sulforhodamine B assay; conditions: NCI-H522, 48 h, values are per cent of control
[20] = Growth inhibition of human HCT15 cells at 10 uM after 48 hrs by sulforhodamine B assay; conditions: HCT-15, 48 h, values are per cent of control
A498 = experiment: Growth inhibition of human A498 cells at 10 uM after 48 hrs by sulforhodamine B assay; conditions: A498, 48 h, values are per cent of control
SK-MEL-28 = experiment: Growth inhibition of human SK-MEL-28 cells at 10 uM after 48 hrs by sulforhodamine B assay; conditions: SK-MEL-28, 48 h, values are per cent of control
[21] = Growth inhibition of human HCC2998 cells at 10 uM after 48 hrs by sulforhodamine B assay; conditions: HCC 2998, 48 h, values are per cent of control
NCI-H226 = experiment: Growth inhibition of human NCI-H226 cells at 10 uM after 48 hrs by sulforhodamine B assay; conditions: NCI-H226, 48 h, values are per cent of control
NCI-H460 = experiment: Growth inhibition of human NCI-H460 cells at 10 uM after 48 hrs by sulforhodamine B assay; conditions: NCI-H460, 48 h, values are per cent of control
[22] = Growth inhibition of human COLO205 cells at 10 uM after 48 hrs by sulforhodamine B assay; conditions: COLO 205, 48 h, values are per cent of control

COc1cc(/C=C(\C#N)c2ccc3c(c2)OCO3)cc(OC)c1OC
growth, % of control at 10 µM (SK-MEL-2): 90.2%
growth, % of control at 10 µM [1]: 99.4%
growth, % of control at 10 µM [2]: 92.2%
growth, % of control at 10 µM [3]: 95.3%
growth, % of control at 10 µM [4]: 89.2%
growth, % of control at 10 µM [5]: 114%
growth, % of control at 10 µM [6]: 93.8%
growth, % of control at 10 µM [7]: 92.4%
growth, % of control at 10 µM [8]: 96.1%
growth, % of control at 10 µM (786-0): 96.5%
growth, % of control at 10 µM (SR): 83.5%
growth, % of control at 10 µM [9]: 86.6%
growth, % of control at 10 µM [10]: 98.9%
growth, % of control at 10 µM (ACHN): 96%
growth, % of control at 10 µM [11]: 100%
growth, % of control at 10 µM [12]: 99.7%
growth, % of control at 10 µM (M14): 95%
growth, % of control at 10 µM [13]: 98.1%
growth, % of control at 10 µM [14]: 87.6%
growth, % of control at 10 µM (U-251): 96.6%
growth, % of control at 10 µM [15]: 107%
growth, % of control at 10 µM (NCI-H23): 94.5%
growth, % of control at 10 µM (T47D): 70.7%
growth, % of control at 10 µM (MDA-MB-468): 99.6%
growth, % of control at 10 µM (NCI-H322M): 104%
growth, % of control at 10 µM (MDA-MB-435): 74.7%
growth, % of control at 10 µM [16]: 103%
growth, % of control at 10 µM [17]: 94.4%
growth, % of control at 10 µM (K562): 80.4%
growth, % of control at 10 µM (SN12C): 95.4%
growth, % of control at 10 µM [18]: 93.9%
growth, % of control at 10 µM [19]: 100%
growth, % of control at 10 µM (NCI-H522): 85.8%
growth, % of control at 10 µM [20]: 85.7%
growth, % of control at 10 µM (A498): 81.8%
growth, % of control at 10 µM (SK-MEL-28): 97.6%
growth, % of control at 10 µM [21]: 91.3%
growth, % of control at 10 µM (NCI-H226): 101%
growth, % of control at 10 µM (NCI-H460): 107%
growth, % of control at 10 µM [22]: 104%

N#C/C(=C\c1cc(Br)cc(Br)c1)c1ccc2c(c1)OCO2
growth, % of control at 10 µM (SK-MEL-2): 88.7%
growth, % of control at 10 µM [1]: 82.1%
growth, % of control at 10 µM [2]: 104%
growth, % of control at 10 µM [3]: 85.1%
growth, % of control at 10 µM [4]: 81.3%
growth, % of control at 10 µM [5]: 77.3%
growth, % of control at 10 µM [6]: 109%
growth, % of control at 10 µM [7]: 94.4%
growth, % of control at 10 µM [8]: 96.4%
growth, % of control at 10 µM (786-0): 98.2%
growth, % of control at 10 µM (SR): 79%
growth, % of control at 10 µM [9]: 88.1%
growth, % of control at 10 µM [10]: 101%
growth, % of control at 10 µM (ACHN): 96.1%
growth, % of control at 10 µM [11]: 95.5%
growth, % of control at 10 µM [12]: 100%
growth, % of control at 10 µM (M14): 92.8%
growth, % of control at 10 µM [13]: 96.1%
growth, % of control at 10 µM [14]: 85.4%
growth, % of control at 10 µM (U-251): 99.9%
growth, % of control at 10 µM [15]: 94.2%
growth, % of control at 10 µM (NCI-H23): 91.5%
growth, % of control at 10 µM (T47D): 82%
growth, % of control at 10 µM (MDA-MB-468): 103%
growth, % of control at 10 µM (NCI-H322M): 91.4%
growth, % of control at 10 µM (MDA-MB-435): 98.7%
growth, % of control at 10 µM [16]: 94.4%
growth, % of control at 10 µM [17]: 93.5%
growth, % of control at 10 µM (K562): 96.2%
growth, % of control at 10 µM (SN12C): 94.7%
growth, % of control at 10 µM [18]: 94.9%
growth, % of control at 10 µM [19]: 112%
growth, % of control at 10 µM (NCI-H522): 76.3%
growth, % of control at 10 µM [20]: 92.6%
growth, % of control at 10 µM (A498): 90.4%
growth, % of control at 10 µM (SK-MEL-28): 98.9%
growth, % of control at 10 µM [21]: 90.7%
growth, % of control at 10 µM (NCI-H226): 115%
growth, % of control at 10 µM (NCI-H460): 99.4%
growth, % of control at 10 µM [22]: 106%
